According to PubChem BioAssay (NCI):
Several values for one entry are separate records, joined by “and”; a condition that tells them apart may be missing. Equal entries are not always repeated.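 Values below derive from 48-hour exposures of cells grown in 96-well plates, with endpoints linearly interpolated between the two concentrations bracketing the appropriate inhibition level. Abbreviation: GI50, concentration required for 50% inhibition of growth. TGI marks complete inhibition of growth.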

Legend:
Experiment in all cases: DTP human tumour cell line panel, 48 h
786-0 renal = tested on: 786-0 renal
A498 renal = tested on: A498 renal
A549 NSCLC = tested on: A549 NSCLC
ACHN renal = tested on: ACHN renal
BT-549 breast = tested on: BT-549 breast
CAKI-1 renal = tested on: CAKI-1 renal
CCRF-CEM leukemia = tested on: CCRF-CEM leukemia
COLO 205 colon = tested on: COLO 205 colon
EKVX NSCLC = tested on: EKVX NSCLC
HCC-2998 colon = tested on: HCC-2998 colon
HCT-116 colon = tested on: HCT-116 colon
HCT-15 colon = tested on: HCT-15 colon
HL-60(TB) leukemia = tested on: HL-60(TB) leukemia
HOP-62 NSCLC = tested on: HOP-62 NSCLC
HOP-92 NSCLC = tested on: HOP-92 NSCLC
HT29 colon = tested on: HT29 colon
IGROV1 ovarian = tested on: IGROV1 ovarian
K-562 leukemia = tested on: K-562 leukemia
KM12 colon = tested on: KM12 colon
LOX IMVI melanoma = tested on: LOX IMVI melanoma
M14 melanoma = tested on: M14 melanoma
MALME-3M melanoma = tested on: MALME-3M melanoma
MCF7 breast = tested on: MCF7 breast
MDA-MB-231 breast = tested on: MDA-MB-231 breast
MDA-N = tested on: MDA-N
MOLT-4 leukemia = tested on: MOLT-4 leukemia
NCI-H226 lung = tested on: NCI-H226 lung
NCI-H460 lung = tested on: NCI-H460 lung
NCI-H522 lung = tested on: NCI-H522 lung
NCI/ADR-RES ovarian = tested on: NCI/ADR-RES ovarian
OVCAR-4 ovarian = tested on: OVCAR-4 ovarian
OVCAR-5 ovarian = tested on: OVCAR-5 ovarian
OVCAR-8 ovarian = tested on: OVCAR-8 ovarian
PC-3 prostate = tested on: PC-3 prostate
RPMI-8226 leukemia = tested on: RPMI-8226 leukemia
RXF 393 renal = tested on: RXF 393 renal
SF-268 CNS = tested on: SF-268 CNS
SF-295 CNS = tested on: SF-295 CNS
SF-539 CNS = tested on: SF-539 CNS
SK-MEL-2 melanoma = tested on: SK-MEL-2 melanoma
SK-MEL-28 melanoma = tested on: SK-MEL-28 melanoma
SK-MEL-5 melanoma = tested on: SK-MEL-5 melanoma
SK-OV-3 ovarian = tested on: SK-OV-3 ovarian
SN12C renal = tested on: SN12C renal
SNB-19 CNS = tested on: SNB-19 CNS
SNB-75 CNS = tested on: SNB-75 CNS
SW-620 colon = tested on: SW-620 colon
TK-10 renal = tested on: TK-10 renal
U251 CNS = tested on: U251 CNS
UACC-257 melanoma = tested on: UACC-257 melanoma
UACC-62 melanoma = tested on: UACC-62 melanoma
DU-145 prostate = tested on: DU-145 prostate
MDA-MB-435 = tested on: MDA-MB-435
NCI-H23 lung = tested on: NCI-H23 lung
OVCAR-3 ovarian = tested on: OVCAR-3 ovarian
SR leukemia = tested on: SR leukemia
UO-31 renal = tested on: UO-31 renal

`COc1ccc(-c2c(C#N)c(S)n(NS(=O)(=O)c3ccc(C)cc3)c(=O)c2C#N)cc1` showed a TGI (786-0 renal) of 31.7 µM, a TGI (A498 renal) of over 100 µM and a TGI (A549 NSCLC) of over 100 µM. For the same compound, the TGI (ACHN renal) was 41.3 µM, the TGI (BT-549 breast) was 32.5 µM and the TGI (CAKI-1 renal) was over 100 µM. It also gave a TGI (CCRF-CEM leukemia) of 26.8 µM, a TGI (COLO 205 colon) of 44.6 µM and a TGI (EKVX NSCLC) of 68.3 µM. The TGI (HCC-2998 colon) was over 100 µM, the TGI (HCT-116 colon) was 28 µM and the TGI (HCT-15 colon) was 32.4 µM. It also gave a TGI (HL-60(TB) leukemia) of 33.2 µM, a TGI (HOP-62 NSCLC) of over 100 µM and a TGI (HOP-92 NSCLC) of over 100 µM. For the same compound, the TGI (HT29 colon) was over 100 µM, the TGI (IGROV1 ovarian) was 33.9 µM and the TGI (K-562 leukemia) was 47.2 µM. For the same compound, the TGI (KM12 colon) was 77.5 µM, the TGI (LOX IMVI melanoma) was 29.8 µM and the TGI (M14 melanoma) was 52.9 µM. It also gave a TGI (MALME-3M melanoma) of over 100 µM, a TGI (MCF7 breast) of over 100 µM and a TGI (MDA-MB-231 breast) of 42.7 µM. For the same compound, the TGI (MDA-N) was 37.5 µM, the TGI (MOLT-4 leukemia) was 34.3 µM and the TGI (NCI-H226 lung) was 89.5 µM. The TGI (NCI-H460 lung) was over 100 µM, the TGI (NCI-H522 lung) was 33.7 µM and the TGI (NCI/ADR-RES ovarian) was 58.9 µM. It also gave a TGI (OVCAR-4 ovarian) of over 100 µM, a TGI (OVCAR-5 ovarian) of 60.7 µM and a TGI (OVCAR-8 ovarian) of 74.8 µM. It also gave a TGI (PC-3 prostate) of 67.5 µM, a TGI (RPMI-8226 leukemia) of 15.4 µM and a TGI (RXF 393 renal) of 42.5 µM. For the same compound, the TGI (SF-268 CNS) was 88 µM, the TGI (SF-295 CNS) was over 100 µM and the TGI (SF-539 CNS) was 29.8 µM. For the same compound, the TGI (SK-MEL-2 melanoma) was 32.1 µM, the TGI (SK-MEL-28 melanoma) was 63.2 µM and the TGI (SK-MEL-5 melanoma) was 30 µM. The TGI (SK-OV-3 ovarian) was over 100 µM, the TGI (SN12C renal) was 34.8 µM and the TGI (SNB-19 CNS) was over 100 µM. The TGI (SNB-75 CNS) was over 100 µM, the TGI (SW-620 colon) was 34.7 µM and the TGI (TK-10 renal) was over 100 µM. For the same compound, the TGI (U251 CNS) was over 100 µM, the TGI (UACC-257 melanoma) was over 100 µM and the TGI (UACC-62 melanoma) was 31.5 µM.
`COC(=O)c1cc2ccc(OC(C)=O)c(OC(C)=O)c2cn1` was tested, and the TGI (786-0 renal) was 33 µM, the TGI (A498 renal) was 48.7 µM and the TGI (A549 NSCLC) was 43 µM. For the same compound, the TGI (ACHN renal) was 31.5 µM, the TGI (CAKI-1 renal) was 35.9 µM and the TGI (CCRF-CEM leukemia) was 5.57 µM. It also gave a TGI (COLO 205 colon) of 36.3 µM, a TGI (DU-145 prostate) of 76.3 µM and a TGI (EKVX NSCLC) of 38.1 µM. The TGI (HCC-2998 colon) was 44.6 µM, the TGI (HCT-116 colon) was 32.7 µM and the TGI (HCT-15 colon) was 39 µM. The GI50 (HL-60(TB) leukemia) was 1.63 µM, the TGI (HL-60(TB) leukemia) was 8.21 µM and 3.8 µM and the TGI (HOP-62 NSCLC) was 42.7 µM. For the same compound, the TGI (HOP-92 NSCLC) was 32.4 µM, the TGI (HT29 colon) was 52.6 µM and the TGI (IGROV1 ovarian) was 33.9 µM. The GI50 (K-562 leukemia) was 1.86 µM, the TGI (K-562 leukemia) was 7.32 µM and 3.75 µM and the TGI (KM12 colon) was 33.6 µM. For the same compound, the TGI (LOX IMVI melanoma) was 3.63 µM and 2.6 µM, the TGI (M14 melanoma) was 34.3 µM and the GI50 (MALME-3M melanoma) was 11.5 µM. For the same compound, the TGI (MALME-3M melanoma) was 24 µM, the GI50 (MCF7 breast) was 16.7 µM and the TGI (MCF7 breast) was 6 µM and 35.5 µM. For the same compound, the GI50 (MDA-MB-231 breast) was 17.7 µM, the TGI (MDA-MB-231 breast) was 7.12 µM and 42.9 µM and the TGI (MDA-MB-435) was 3.16 µM and 3.26 µM. The GI50 (MDA-N) was 2.03 µM, the TGI (MDA-N) was 2.93 µM and 3.68 µM and the GI50 (MOLT-4 leukemia) was 2.22 µM. For the same compound, the TGI (MOLT-4 leukemia) was 6.54 µM and 4.28 µM, the TGI (NCI-H226 lung) was 41.7 µM and the TGI (NCI-H23 lung) was 36.8 µM. The TGI (NCI-H460 lung) was 39.7 µM, the TGI (NCI-H522 lung) was 34.5 µM and the GI50 (NCI/ADR-RES ovarian) was 27.3 µM. For the same compound, the TGI (NCI/ADR-RES ovarian) was 70 µM, the TGI (OVCAR-3 ovarian) was 30.9 µM and the TGI (OVCAR-4 ovarian) was 30.6 µM. The TGI (OVCAR-5 ovarian) was 34.2 µM, the GI50 (OVCAR-8 ovarian) was 10.1 µM and the TGI (OVCAR-8 ovarian) was 22.2 µM. The TGI (PC-3 prostate) was 50.9 µM, the TGI (RPMI-8226 leukemia) was 4.91 µM and the TGI (RXF 393 renal) was 33.4 µM. The TGI (SF-268 CNS) was 53 µM, the GI50 (SF-295 CNS) was 42.1 µM and the TGI (SF-539 CNS) was 33.8 µM. It also gave a TGI (SK-MEL-2 melanoma) of 36.7 µM, a TGI (SK-MEL-28 melanoma) of 34.3 µM and a TGI (SK-MEL-5 melanoma) of 30.3 µM. For the same compound, the TGI (SK-OV-3 ovarian) was 52.4 µM, the GI50 (SN12C renal) was 6.91 µM and the TGI (SN12C renal) was 21.3 µM. The TGI (SNB-75 CNS) was 42 µM, the TGI (SR leukemia) was 6.98 µM and the GI50 (SW-620 colon) was 13.4 µM. The TGI (SW-620 colon) was 31.9 µM, the TGI (TK-10 renal) was 34.9 µM and the GI50 (U251 CNS) was 12.7 µM. It also gave a TGI (U251 CNS) of 28.2 µM, a TGI (UACC-257 melanoma) of 29.2 µM and a GI50 (UACC-62 melanoma) of 16.3 µM. For the same compound, the TGI (UACC-62 melanoma) was 5.8 µM and 35.1 µM and the TGI (UO-31 renal) was 30 µM.
